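Tested at 5 concentrations; 48 h exposure; 96-well plates; endpoints linearly interpolated, else capped at highest concentration. Abbreviation: GI50, concentration required for 50% inhibition of growth.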 The source made the active and inactive calls. No stated cut-off is given here; in the data, active = GI50 up to about 1.1 µM and inactive = higher.
Experiments:
Assay in all cases: inhibition of tumour cell growth, NCI panel, 48 h
786-0 = system: 786-0
A498 = system: A498
A549 = system: A549
ACHN = system: ACHN
BT-549 = system: BT-549
CAKI-1 = system: CAKI-1
COLO 205 = system: COLO 205
DU-145 = system: DU-145
EKVX = system: EKVX
HCC 2998 = system: HCC 2998
HCT-116 = system: HCT-116
HCT-15 = system: HCT-15
HL-60 = system: HL-60
HOP-62 = system: HOP-62
HOP-92 = system: HOP-92
HT-29 = system: HT-29
Hs-578T = system: Hs-578T
IGROV-1 = system: IGROV-1
K562 = system: K562
KM12 = system: KM12
LOX IMVI = system: LOX IMVI
M14 = system: M14
MCF7 = system: MCF7
MDA-MB-231 = system: MDA-MB-231
MDA-MB-435 = system: MDA-MB-435
MDA-N = system: MDA-N
MOLT-4 = system: MOLT-4
Malme-3M = system: Malme-3M
NCI-H226 = system: NCI-H226
NCI-H23 = system: NCI-H23
NCI-H460 = system: NCI-H460
NCI-H522 = system: NCI-H522
NCI/ADR-RES = system: NCI/ADR-RES
OVCAR-3 = system: OVCAR-3
OVCAR-4 = system: OVCAR-4
OVCAR-5 = system: OVCAR-5
OVCAR-8 = system: OVCAR-8
PC-3 = system: PC-3
RPMI-8226 = system: RPMI-8226
RXF 393 = system: RXF 393
SF-268 = system: SF-268
SF-295 = system: SF-295
SF-539 = system: SF-539
SK-MEL-28 = system: SK-MEL-28
SK-MEL-2 = system: SK-MEL-2
SK-MEL-5 = system: SK-MEL-5
SK-OV-3 = system: SK-OV-3
SN12C = system: SN12C
SNB-19 = system: SNB-19
SNB-75 = system: SNB-75
SW-620 = system: SW-620
T47D = system: T47D
TK-10 = system: TK-10
U-251 = system: U-251
UACC-257 = system: UACC-257
UACC-62 = system: UACC-62
UO-31 = system: UO-31
CCRF-CEM = system: CCRF-CEM

COc1cc(/C=C2\C[C@H]3[C@@H]4CC=C5C[C@@H](O)CC[C@]5(C)[C@H]4CC[C@]3(C)C2=O)cc(OC)c1OC
GI50 (786-0): 26.6 µM (inactive) | GI50 (A498): 51.6 µM (inactive) | GI50 (A549): 13.2 µM (inactive) | GI50 (ACHN): 30.5 µM (inactive) | GI50 (BT-549): 33.4 µM (inactive) | GI50 (CAKI-1): 36.9 µM (inactive) | GI50 (COLO 205): 20.7 µM (inactive) | GI50 (DU-145): 39.1 µM (inactive) | GI50 (EKVX): 33.5 µM (inactive) | GI50 (HCC 2998): 27.6 µM (inactive) | GI50 (HCT-116): 20.1 µM (inactive) | GI50 (HCT-15): 22.1 µM | GI50 (HL-60): 0.366 µM (active) | GI50 (HOP-62): 26.4 µM (inactive) | GI50 (HOP-92): 30.3 µM (inactive) | GI50 (HT-29): 19.9 µM (inactive) | GI50 (Hs-578T): 40.6 µM (inactive) | GI50 (IGROV-1): 64.1 µM (inactive) | GI50 (K562): 12.2 µM (inactive) | GI50 (KM12): 27.2 µM (inactive) | GI50 (LOX IMVI): 22 µM (inactive) | GI50 (M14): 24.4 µM (inactive) | GI50 (MCF7): 20.8 µM (inactive) | GI50 (MDA-MB-231): 26.4 µM (inactive) | GI50 (MDA-MB-435): 29.8 µM (inactive) | GI50 (MDA-N): 29.1 µM (inactive) | GI50 (MOLT-4): 16.3 µM (inactive) | GI50 (Malme-3M): 32.7 µM (inactive) | GI50 (NCI-H226): 31.4 µM (inactive) | GI50 (NCI-H23): 35.3 µM (inactive) | GI50 (NCI-H460): 27.4 µM (inactive) | GI50 (NCI-H522): 16.9 µM (inactive) | GI50 (NCI/ADR-RES): 27.5 µM (inactive) | GI50 (OVCAR-3): 26.2 µM (inactive) | GI50 (OVCAR-4): 39.4 µM (inactive) | GI50 (OVCAR-5): 39.6 µM (inactive) | GI50 (OVCAR-8): 34.6 µM (inactive) | GI50 (PC-3): 28.1 µM (inactive) | GI50 (RPMI-8226): 6.98 µM (inactive) | GI50 (RXF 393): 19.6 µM (inactive) | GI50 (SF-268): 51.5 µM (inactive) | GI50 (SF-295): 19 µM (inactive) | GI50 (SF-539): 49 µM (inactive) | GI50 (SK-MEL-28): 45.7 µM (inactive) | GI50 (SK-MEL-2): 28.8 µM (inactive) | GI50 (SK-MEL-5): 12.5 µM (inactive) | GI50 (SK-OV-3): 53.1 µM (inactive) | GI50 (SN12C): 26.1 µM (inactive) | GI50 (SNB-19): 27.7 µM (inactive) | GI50 (SNB-75): 30.6 µM (inactive) | GI50 (SW-620): 39.6 µM (inactive) | GI50 (T47D): 12.6 µM (inactive) | GI50 (TK-10): 37.2 µM (inactive) | GI50 (U-251): 32.1 µM (inactive) | GI50 (UACC-257): 29.2 µM (inactive) | GI50 (UACC-62): 37.1 µM (inactive) | GI50 (UO-31): 17.5 µM (inactive)

CCc1cn(C2CC(CO)C(CO)S2)c(=O)[nH]c1=O (stereo unspecified)
GI50 (786-0): > 100 µM (inactive) | GI50 (A498): > 100 µM (inactive) | GI50 (A549): > 100 µM (inactive) | GI50 (ACHN): > 100 µM (inactive) | GI50 (BT-549): > 100 µM (inactive) | GI50 (CAKI-1): > 100 µM (inactive) | GI50 (CCRF-CEM): > 100 µM (inactive) | GI50 (COLO 205): > 100 µM (inactive) | GI50 (DU-145): > 100 µM (inactive) | GI50 (EKVX): > 100 µM (inactive) | GI50 (HCC 2998): > 100 µM (inactive) | GI50 (HCT-116): > 100 µM (inactive) | GI50 (HCT-15): > 100 µM | GI50 (HL-60): > 100 µM (inactive) | GI50 (HOP-62): > 100 µM (inactive) | GI50 (HOP-92): > 100 µM (inactive) | GI50 (HT-29): > 100 µM (inactive) | GI50 (Hs-578T): > 100 µM (inactive) | GI50 (IGROV-1): > 100 µM (inactive) | GI50 (K562): > 100 µM (inactive) | GI50 (KM12): > 100 µM (inactive) | GI50 (LOX IMVI): > 100 µM (inactive) | GI50 (M14): > 100 µM (inactive) | GI50 (MCF7): > 100 µM (inactive) | GI50 (MDA-MB-231): > 100 µM (inactive) | GI50 (MDA-MB-435): > 100 µM (inactive) | GI50 (MDA-N): > 100 µM (inactive) | GI50 (MOLT-4): > 100 µM (inactive) | GI50 (Malme-3M): > 100 µM (inactive) | GI50 (NCI-H226): > 100 µM (inactive) | GI50 (NCI-H23): > 100 µM (inactive) | GI50 (NCI-H522): > 100 µM (inactive) | GI50 (NCI/ADR-RES): > 100 µM (inactive) | GI50 (OVCAR-3): > 100 µM (inactive) | GI50 (OVCAR-4): > 100 µM (inactive) | GI50 (OVCAR-5): > 100 µM (inactive) | GI50 (OVCAR-8): > 100 µM (inactive) | GI50 (PC-3): > 100 µM (inactive) | GI50 (RPMI-8226): > 100 µM (inactive) | GI50 (RXF 393): > 100 µM (inactive) | GI50 (SF-268): > 100 µM (inactive) | GI50 (SF-295): > 100 µM (inactive) | GI50 (SF-539): > 100 µM (inactive) | GI50 (SK-MEL-28): > 100 µM (inactive) | GI50 (SK-MEL-2): > 100 µM (inactive) | GI50 (SK-MEL-5): > 100 µM (inactive) | GI50 (SK-OV-3): > 100 µM (inactive) | GI50 (SN12C): > 100 µM (inactive) | GI50 (SNB-19): > 100 µM (inactive) | GI50 (SNB-75): > 100 µM (inactive) | GI50 (SW-620): > 100 µM (inactive) | GI50 (T47D): > 100 µM (inactive) | GI50 (TK-10): > 100 µM (inactive) | GI50 (U-251): > 100 µM (inactive) | GI50 (UACC-257): > 100 µM (inactive) | GI50 (UACC-62): > 100 µM (inactive) | GI50 (UO-31): > 100 µM (inactive)

OCC(O)CNc1ncnc2ccccc12 (stereo unspecified)
GI50 (786-0): > 100 µM (inactive) | GI50 (A498): > 100 µM (inactive) | GI50 (A549): > 100 µM (inactive) | GI50 (ACHN): > 100 µM (inactive) | GI50 (BT-549): > 100 µM (inactive) | GI50 (CAKI-1): > 100 µM (inactive) | GI50 (CCRF-CEM): > 100 µM (inactive) | GI50 (COLO 205): > 100 µM (inactive) | GI50 (DU-145): > 100 µM (inactive) | GI50 (EKVX): > 100 µM (inactive) | GI50 (HCC 2998): > 100 µM (inactive) | GI50 (HCT-116): > 100 µM (inactive) | GI50 (HCT-15): > 100 µM | GI50 (HL-60): > 100 µM (inactive) | GI50 (HOP-62): > 100 µM (inactive) | GI50 (HOP-92): > 100 µM (inactive) | GI50 (HT-29): > 100 µM (inactive) | GI50 (Hs-578T): > 100 µM (inactive) | GI50 (IGROV-1): > 100 µM (inactive) | GI50 (K562): > 100 µM (inactive) | GI50 (KM12): > 100 µM (inactive) | GI50 (LOX IMVI): > 100 µM (inactive) | GI50 (M14): > 100 µM (inactive) | GI50 (MCF7): > 100 µM (inactive) | GI50 (MDA-MB-231): > 100 µM (inactive) | GI50 (MDA-MB-435): > 100 µM (inactive) | GI50 (MDA-N): > 100 µM (inactive) | GI50 (MOLT-4): > 100 µM (inactive) | GI50 (Malme-3M): > 100 µM (inactive) | GI50 (NCI-H226): > 100 µM (inactive) | GI50 (NCI-H23): > 100 µM (inactive) | GI50 (NCI-H460): > 100 µM (inactive) | GI50 (NCI-H522): > 100 µM (inactive) | GI50 (NCI/ADR-RES): > 100 µM (inactive) | GI50 (OVCAR-3): > 100 µM (inactive) | GI50 (OVCAR-4): > 100 µM (inactive) | GI50 (OVCAR-5): > 100 µM (inactive) | GI50 (OVCAR-8): > 100 µM (inactive) | GI50 (PC-3): > 100 µM (inactive) | GI50 (RPMI-8226): > 100 µM (inactive) | GI50 (RXF 393): > 100 µM (inactive) | GI50 (SF-268): > 100 µM (inactive) | GI50 (SF-295): > 100 µM (inactive) | GI50 (SK-MEL-28): > 100 µM (inactive) | GI50 (SK-MEL-2): > 100 µM (inactive) | GI50 (SK-MEL-5): > 100 µM (inactive) | GI50 (SK-OV-3): > 100 µM (inactive) | GI50 (SN12C): > 100 µM (inactive) | GI50 (SNB-19): > 100 µM (inactive) | GI50 (SNB-75): > 100 µM (inactive) | GI50 (SW-620): > 100 µM (inactive) | GI50 (T47D): > 100 µM (inactive) | GI50 (TK-10): > 100 µM (inactive) | GI50 (U-251): > 100 µM (inactive) | GI50 (UACC-257): > 100 µM (inactive) | GI50 (UACC-62): > 100 µM (inactive) | GI50 (UO-31): > 100 µM (inactive)
